The source of these data is the OPERA property sets (Mansouri et al. 2018).

Structures are written as SMILES.

Conditions in the first data set: not given
As a reminder, the boiling point is the temperature at which the vapour pressure of the liquid equals the pressure above it. The term melting point denotes the temperature, or range, at which the solid turns liquid. The molecule `CC(C)CS(=O)(=O)CC(C)C` registered a boiling point of 265 °C and a melting point of 17 °C. In turn, `Oc1c(Cl)cc(Cl)cc1Sc1cc(Cl)cc(Cl)c1O` gave a melting point of 188 °C. `O=C(O)Cc1ccc(O)c(O)c1` displayed a melting point of 128 °C.

Take `CCCCCCC(C)Nc1ccc(Nc2ccccc2)cc1` (stereo not given): the ready biodegradability result was “not readily biodegradable”. The molecule `C1CSCCS1` had a boiling point of 200 °C, a log10 vapour pressure (mmHg) of -0.0969 and a melting point of 112 °C. As for `C/C=C\C(C)(C)C`, the boiling point was determined as 80.4 °C and the melting point was -135 °C. In the case of `CCOc1ccc(NC(C)=O)cc1`, the boiling point stood at 244 °C, the log10 Koa stood at 9.59, the log10 vapour pressure (mmHg) was -6.16 and the melting point came out at 138 °C. Moreover, the ready biodegradability result was “not readily biodegradable”.

`NCCCCCC(=O)O` gave a melting point of 205 °C. On the same count and under the same terms, in the case of `O=P(O)(O)OCC(O)CO` (stereo not given) it was -25 °C. Still for that read-out and setting: in the case of `OCc1cccc(CO)c1` it was 57 °C. In the case of `Cc1cccs1`, the boiling point was 113 °C, the log10 Henry constant (atm·m³/mol) was -2.62, the log10 vapour pressure (mmHg) worked out at 1.4 and the melting point is -63.4 °C. For `CC(O)CCO` (stereo not given), the boiling point worked out at 208 °C and the log10 vapour pressure (mmHg) is -1.7. On to `CC1(C)COC(=O)C1O` (stereo not given), for which the melting point turned out to be 92 °C and the ready biodegradability result was “readily biodegradable”.

Consider `CCN(CC)C(=O)c1cccnc1`, for which the boiling point came out at 298 °C and the melting point was 25 °C. In turn, `ClCc1ccc(CCl)cc1` displayed a melting point of 100 °C. In turn, `CC(Br)CCl` (stereo not given) had a boiling point of 118 °C. `Cc1ccc(N)c(Br)c1`: the boiling point is 240 °C and the melting point turned out to be 26 °C. Take `C=CC(=O)CC`: the boiling point came to 103 °C. On the same count and under the same terms, in the case of `Brc1ccoc1` it was 103 °C; in that of `CN(C)CCCCN(C)C`, 168 °C. `Nc1cnn(-c2ccccc2)c(=O)c1Br` had a melting point of 224 °C. One may read the logP as a log measure of how a compound divides between an organic and an aqueous phase. Consider `Brc1ccc(Oc2ccccc2Br)c(Br)c1`, for which the logP was 5.74. As to `Cc1ccccc1C(=O)O`, the boiling point was 259 °C, the log10 vapour pressure (mmHg) was -3.18, the melting point came to 104 °C and the ready biodegradability result is reported as “readily biodegradable”.

`CCN(C)C(=O)COC(=O)c1ccccc1` had a melting point of 20 °C. On the same count and under the same terms, the figure for `O=C(O)c1ccc2c(c1)CCCC2` is 156 °C. `CCc1cccnc1` displayed a boiling point of 165 °C, a log10 Henry constant (atm·m³/mol) of -4.98, a log10 vapour pressure (mmHg) of 0.403 and a melting point of -76.9 °C. Regarding `CCOc1ccc2nc(S(N)(=O)=O)sc2c1`, the melting point is 189 °C. On the same count and under the same terms, in the case of `c1ccc2c(c1)cc1ccc3c4ccccc4cc4ccc2c1c43` it was 317 °C. Consider `CCCCCCC(=O)CCC`, for which the boiling point worked out at 206 °C and the melting point is -9 °C. Take `CCCC#CCCCCCC`: the boiling point turned out to be 198 °C and the melting point was -74.7 °C. On to `O=C(Nc1ccc(Cl)cc1)Nc1ccc(Cl)c(Cl)c1`, for which the melting point came out at 256 °C and the ready biodegradability result was “not readily biodegradable”. Molecule `N#C[C@H](O[C@@H]1O[C@H](CO[C@@H]2O[C@H](CO)[C@@H](O)[C@H](O)[C@H]2O)[C@@H](O)[C@H](O)[C@H]1O)c1ccccc1` yielded a melting point of 224 °C.

`CCOC(=O)CCl` displayed a boiling point of 144 °C, a log10 vapour pressure (mmHg) of 0.687 and a melting point of -21 °C. `CCCOCCN(C(=O)CCl)c1c(CC)cccc1CC` yielded a log10 Henry constant (atm·m³/mol) of -8.1 and a log10 vapour pressure (mmHg) of -6. Consider `C[Si](Cl)(c1ccccc1)c1ccccc1`, for which the boiling point is 295 °C. `O=Cc1ccc([N+](=O)[O-])cc1`: the melting point amounted to 107 °C. Still for that read-out and setting: the figure for `Cc1ccc2c(C)cccc2c1C` is 33.5 °C.

`CC(C)COS(=O)OCC(C)C` returned a boiling point of 210 °C. Take `C1=CCC2CC=CC2C1` (stereo not given): the ready biodegradability result was “not readily biodegradable”.

Take `CC(=O)Nc1ccccc1O`: the melting point came out at 208 °C and the ready biodegradability entry is given as “readily biodegradable”. The molecule `CCOCCOc1ccccc1` had a boiling point of 230 °C.

`c1ccc2cc3c(ccc4ccccc43)cc2c1` registered a boiling point of 438 °C, a log10 Henry constant (atm·m³/mol) of -4.92, a log10 Koc (L/kg) of 5.3 and a log10 biodegradation half-life (days) of 2.46. The log10 vapour pressure (mmHg) was -6.68 and the ready biodegradability entry is “not readily biodegradable”.

Staying with this data set, now noted: fish.
Take `CCOc1ccc(NC(C)=O)cc1`: the log10 BCF was 1.48 and the log10 biotransformation half-life (days) is -0.55. `C=CCCC(CC)CCCC` (stereo not given) showed a log10 biotransformation half-life (days) of 0.93. `c1ccc2cc3c(ccc4ccccc43)cc2c1`: the log10 BCF was 2.41 and the log10 biotransformation half-life (days) amounted to 0.02.
